From patent US12419976B2, “Hybrid tracers for targeted cancer imaging and treatment” (ACADEMISCH ZIEKENHUIS LEIDEN (H.O.D.N. LUMC), priority 2018, dated 2025)
Values joined by “and” are separate entries in the source; they are usually repeats but may differ in a detail not shown here. Equal entries are not always repeated. Where a SMILES comes first, the peptide text is derived from it. [ ]: non-standard residue; d: D form. The star is where a group is joined. X1 = O=C(O)CC[C@H](NC(=O)N[C@@H](CCCCNC(=O)CCCCCCC(=O)*)C(=O)O)C(=O)O; d2Nal = N[C@H](Cc1ccc2ccccc2c1)C(=O)O; Mercaptoacetyl = O=C(CS)*

Legend:
[1] = Stability in serum at 37° C., absorbance and fluorescence after 24 h; format: in vitro ADME; details: for Serum stability after 24 h, remaining absorbance / Serum stability after 24 h, remaining fluorescence: n = 2
Experimental: Not only serum binding, but also the stability in serum is valuable. This characteristic is another brick in the wall for the preclinical evaluation of hybrid tracers since this indicates a compound's in vivo stability. Clearly, any compound degrading in an in vivo environment is not suited for clinical use. All hybrid tracers were incubated in serum at 37° C. and their absorbance and fluorescence were measured after 24 h.

PSMA [2] = molecular target: T1, PSMA (Homo sapiens, UniProt Q04609); assay: Competitive binding assay, LNCaP cells, EuK[125I]I-BA radioligand; details: for IC50: human LNCaP cells, EuK[125I]I-BA competitive radioligand, n ≥ 3, read-out: IC50 (PSMA affinity)
T1 construct: endogenous in cells; host or cells: LNCaP cells
Experimental: (§1) Fluoresence confocal microscopy was utilised as a tool for receptor localisation. As depicted in FIG. 3, a typical PSMA-targeting tracer brightly stains the extracellular receptor. IC50 was determined in a competitive binding assay using human LNCaP cells and EuK[^125I]I-BA as competitive radioligand.

[3] = tested on: orthotopically transplanted PC346C cells; assay: Ex vivo biodistribution in tumour-bearing mice; details: for Tumour-to-fat ratio (T/F): FIG. 5D; for Hepatic clearance: FIG. 5C, in %ID/g
Experimental: (§2) A) In vivo SPECT imaging. Coronal SPECT imaging image of prostate tumour-bearing mice injected with either one of the PSMA hybrid tracer analogues. Organs are denoted as Lu (lungs), Li (liver), G (gallbladder), S (spleen), K (kidneys), B (bladder) and T (tumour). B) Comparison of biodistribution of the hybrid tracer matrix compared to the clinically approved tracer PSMA I&S, with C) providing the biodistribution of hybrid tracer EUK(SO3)—CY5-MAS3. Biodistribution pattern at 2 h post injection of the different hybrid tracers from the matrix compared to the reference tracer PSMA I&S depicted as percentage of the injected dose per gram tissue (% ID/g).
FIG. 5 illustrates biodistribution parameters and tumour uptake for exemplary hybrid tracers. Overview of A) the % Injected activity found in all excised organs percentage of the injected activity that remained at 2 h post tracer injection (all ns), B) the amount of radioactivity still present in the blood pool and C) no significant differences in hepatic clearance between the compounds. To highlight the visibility of the tumour over background tissue notorious for occluding signal within the area of the prostate, the D) tumour-to-fat and E) the tumour-to-blood ratio are provided for the individual hybrid tracers. Significance portrayed as: nothing (non-significant) *(p≤0.05) **(p≤0.01) ***(p≤0.001).
(§3) The in vivo characteristics were investigated in male BALB/c nude mice using orthotopically transplanted PC346C cells. These mice were analysed in various ways, i.e., in vivo nuclear imaging (SPECT) in tumour-bearing mice, in vivo optical imaging (fluorescence imaging) in tumour-bearing mice, ex vivo biodistribution (percentage injected dose per gram (% ID/g)) in healthy and tumour-bearing mice and ex vivo fluorescence imaging.

serum albumin = serum albumin (Homo sapiens, UniProt P02768); assay: Plasma protein binding (serum binding); format: in vitro ADME; details: for Plasma protein binding (PPB): FIG. 2A; for fraction unbound: serum albumin, n = 3 (Table 3)
Source text: FIG. 2 illustrates the results for plasma protein interaction assays for exemplary hybrid tracer compounds. A) Plasma protein binding as a percentage of the indicated hybrid tracers bound to serum albumin. All hybrid tracers portray significant differences (p<0.05) except when noted (ns).
Serum binding, or rather plasma protein binding (PPB) is a useful pharmacokinetic characteristic for the initial assessment of tracer candidates prior to in vivo use as PPB is directly related to, e.g., blood retention and clearance rates. All hybrid tracers have PPB with values between 52-89% with an average of 76±12% (FIG. 2A). The benzo[e]indole-containing hybrid tracers (EuK(Ar)-Cy5-MAS3, EuK-Cy5-(Ar)MAS3 and EuK(Ar)Cy5-(Ar)MAS3) tend to have the highest PPB. […] This can be explained by Sudlow's site, a binding pocket in albumin's subdomain IIA, which binds bulky heterocyclic anions. No clear correlation could be found between c log D and serum binding. Even though PPB has a relation to the lipophilicity, it was expected that we could not predict the PPB based on the c log D as the PPB cannot be explained by a single physiochemical characteristic.

[4] = tested on: orthotopically transplanted PC346C cells; assay: In vivo SPECT imaging in tumour-bearing mice; details: tumour-bearing nude BALB/c mice, FIG. 4A
Experimental: as §2, §3

[5] = Lipophilicity logP(o/w) of 99mTc-labeled hybrid tracers; format: physicochemical; details: octanol/water, n = 6
[6] = Photophysical properties of Cy5 dyes and hybrid tracers in PBS; format: physicochemical; details: for Brightness: determined using the ε of the hybrid tracer's corresponding fluorophore
Experimental: The brightness of a dye—one of the most important photophysical characteristics in a clinical setting—is the product of its molar extinction coefficient (e) and quantum yield (ϕF). We therefore set out to determine the e of each fluorophore by creating a linear concentration range (7.5-0.25 μM) in PBS and measuring the corresponding absorbance (Table 1). The addition of a sulfonate on the carboxylic-acid-containing indoline moiety diminishes the epsilon and the use of extra aryl moieties on the cyanine backbone greatly diminishes the dyes' solvability and thus their epsilon is greatly diminished as well.
The ϕF of a fluorophore is the relation between the number of photons emitted divided by the number of photons absorbed by a single molecule. It is therefore also called the emission efficiency. […] Perhaps an asymmetrical cyanine core, with its significant electron density imbalance, is an inefficient fluorophore. In line with our expectations-since the benzo[e]indole caused J-aggregate formation, the ϕF of benzo[e]indole-containing fluorophores were diminished. […] The only trend derived from the abovementioned data is that the free fluorophore benefits (when optimising emission efficiency) from symmetrical substituents on the cyanine structure.
As the brightness of a fluorophore (or hybrid tracer) is one of its most important photophysical traits, we calculated the brightness for all fluorophores. In order to give insight in the hybrid tracer's optical performance, the brightness was determined by using the ε of its corresponding fluorophore in PBS. […] EuK(SO3)-Cy5-MAS3 thus contains the most favourable photophysical characteristics out of these 6 exemplary hybrid tracers.

PSMA [7] = molecular target: T1, PSMA; assay: Fluorescence confocal microscopy of LNCaP cells; format: cell-based; details: FIG. 3
Experimental: A) provides a brightfield image of incubated cells. B) provides an overlay of confocal images of incubated cells with Cy5-related signal of the PSMA-targeting tracer in red, the nucleus in blue and lysosomes in the cytoplasm in green. C) provides an overlay of the confocal and brightfield images.
as §1

Chain of serum albumin (P02768 25-609): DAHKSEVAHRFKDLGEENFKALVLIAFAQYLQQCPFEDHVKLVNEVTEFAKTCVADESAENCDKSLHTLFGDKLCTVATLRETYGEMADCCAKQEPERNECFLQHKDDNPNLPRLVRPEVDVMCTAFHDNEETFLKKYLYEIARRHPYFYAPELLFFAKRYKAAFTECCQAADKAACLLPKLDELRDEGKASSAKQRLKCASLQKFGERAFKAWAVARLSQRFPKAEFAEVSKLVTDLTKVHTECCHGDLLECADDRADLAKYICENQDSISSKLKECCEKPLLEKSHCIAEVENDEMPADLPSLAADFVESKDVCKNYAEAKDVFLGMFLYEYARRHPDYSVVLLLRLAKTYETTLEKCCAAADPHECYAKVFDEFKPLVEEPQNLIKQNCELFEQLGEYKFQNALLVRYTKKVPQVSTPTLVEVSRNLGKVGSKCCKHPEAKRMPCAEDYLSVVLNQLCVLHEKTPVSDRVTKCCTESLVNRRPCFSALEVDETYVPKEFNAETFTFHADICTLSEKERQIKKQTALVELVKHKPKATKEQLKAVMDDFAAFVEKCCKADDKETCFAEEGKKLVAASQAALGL
T1 sequence (Q04609 whole entry): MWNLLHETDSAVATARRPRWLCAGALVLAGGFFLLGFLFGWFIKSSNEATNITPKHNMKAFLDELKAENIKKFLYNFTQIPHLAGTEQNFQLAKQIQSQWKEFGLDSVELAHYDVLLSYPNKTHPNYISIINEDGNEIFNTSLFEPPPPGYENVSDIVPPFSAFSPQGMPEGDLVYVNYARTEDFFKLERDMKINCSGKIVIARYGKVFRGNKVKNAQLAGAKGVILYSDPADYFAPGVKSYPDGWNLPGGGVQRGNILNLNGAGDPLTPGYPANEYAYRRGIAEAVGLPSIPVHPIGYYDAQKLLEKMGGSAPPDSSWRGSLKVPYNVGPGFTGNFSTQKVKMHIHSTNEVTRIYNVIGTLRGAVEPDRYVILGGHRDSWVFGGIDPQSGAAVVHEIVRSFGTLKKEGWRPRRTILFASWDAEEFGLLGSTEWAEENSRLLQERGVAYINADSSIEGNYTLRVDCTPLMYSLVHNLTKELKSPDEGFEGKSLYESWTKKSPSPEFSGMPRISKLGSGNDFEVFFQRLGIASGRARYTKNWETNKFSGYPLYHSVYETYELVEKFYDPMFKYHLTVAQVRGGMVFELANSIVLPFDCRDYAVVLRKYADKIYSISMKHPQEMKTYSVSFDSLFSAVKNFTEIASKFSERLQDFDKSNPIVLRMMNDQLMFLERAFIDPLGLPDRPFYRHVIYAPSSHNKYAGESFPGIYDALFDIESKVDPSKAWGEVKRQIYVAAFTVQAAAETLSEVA

SMILES	Serum stability after 24 h, remaining absorbance [1]	Serum stability after 24 h, remaining fluorescence [1]	IC50 (PSMA [2])	Tumour-to-fat ratio (T/F) [3]	Plasma protein binding (PPB) (serum albumin)	fraction unbound (serum albumin)	Nuclear (SPECT) imaging of the tumour [4]	logP [5]	Stokes shift [6]	ΦF (quantum yield) [6]	λem [6]	λex [6]	Brightness [6]	Hepatic clearance [3]	Blood retention ([3]; 2 h post injection, FIG. 5B)	Serum stability (comparison between tracers) ([1]; p<0.05)	PSMA affinity relative to EuK-Cy5(SO3)-MAS3 (PSMA [2]; ratio of affinities)	Tumour-to-blood ratio (T/B) ([3]; FIG. 5E)	Staining of LNCaP cells (confocal) (PSMA [7])	Kidney accumulation ([3]; biodistribution 2 h post injection)
CC(=O)SCC(=O)NC(CO)C(=O)NC(CO)C(=O)NC(CO)C(=O)NCCCCCC(=O)NCCCCN1C(=CC=CC=CC2=[N+](CCCCCC(=O)NCCCCC(NC(=O)NC(CCC(=O)O)C(=O)O)C(=O)O)c3ccccc3C2(C)C)C(C)(C)c2cc(S(=O)(=O)[O-])ccc21 (stereo not shown) [EuK-Cy5-(SO3)MAS3]	82 ± 7 % remaining	85 ± 1 % remaining	119 ± 117 nM	2658±659	significantly higher than the PPB of EuK-Cy5-MAS3	0.126	clear nuclear imaging of the tumour	-2.7 ± 0.01	16 nm	7%	664 nm	648 nm	10^‡ 10^3 M^−1 · cm^−1	–	–	–	–	–	–	–
CC(=O)SCC(=O)NC(CO)C(=O)NC(CO)C(=O)NC(CO)C(=O)NCCCCCC(=O)NCCCCN1C(=CC=CC=CC2=[N+](CCCCCC(=O)NCCCCC(NC(=O)NC(CCC(=O)O)C(=O)O)C(=O)O)c3ccccc3C2(C)C)C(C)(C)c2ccccc21 (stereo not shown) [EuK-Cy5-MAS3]	80 ± 6 % remaining	86 ± 5 % remaining	175 ± 61.6 nM	2542±287	–	0.117	–	-2.13 ± 0.1	18 nm	16%	663 nm	644 nm	–	19.93±13.44	–	–	–	–	–	–
CC(=O)SCC(=O)NC(CO)C(=O)NC(CO)C(=O)NC(CO)C(=O)NCCCCCC(=O)NCCCCN1C(=CC=CC=CC2=[N+](CCCCCC(=O)NCCCCC(NC(=O)NC(CCC(=O)O)C(=O)O)C(=O)O)c3ccc4ccccc4c3C2(C)C)C(C)(C)c2ccccc21 (stereo not shown) [EuK(Ar)-Cy5-MAS3]	85 ± 3 % remaining	79 ± 1 % remaining	113 ± 35.9 nM	–	highest PPB	0.093	–	-1.75 ± 0.1	18 nm	9%	682 nm	664 nm	3^‡ 10^3 M^−1 · cm^−1	0.94±0.13 and 1.10±0.14	6.91±1.08 ID/g	–	–	–	–	–
CC(=O)SCC(=O)NC(CO)C(=O)NC(CO)C(=O)NC(CO)C(=O)NCCCCCC(=O)NCCCCN1C(=CC=CC=CC2=[N+](CCCCCC(=O)NCCCCC(NC(=O)NC(CCC(=O)O)C(=O)O)C(=O)O)c3ccc4ccccc4c3C2(C)C)C(C)(C)c2c1ccc1ccccc21 (stereo not shown) [EuK(Ar)-Cy5-(Ar)MAS3]	–	–	345 nM	–	highest PPB	–	clear nuclear imaging of the tumour	–	18 nm	14%	700 nm	682 nm	7^‡ 10^3 M^−1 · cm^−1	0.87±0.66	–	significantly lower serum stability	–	–	–	–
CC(=O)SCC(=O)NC(CO)C(=O)NC(CO)C(=O)NC(CO)C(=O)NCCCCCC(=O)NCCCCN1C(=CC=CC=CC2=[N+](CCCCCC(=O)NCCCCC(NC(=O)NC(CCC(=O)O)C(=O)O)C(=O)O)c3ccccc3C2(C)C)C(C)(C)c2c1ccc1ccccc21 (stereo not shown) [EuK-Cy5-(Ar)MAS3]	75 ± 0 % remaining	76 ± 0 % remaining	164 ± 76.9 nM	–	highest PPB	0.11	–	-1.84 ± 0.06	17 nm	9%	680 nm	663 nm	5^‡ 10^3 M^−1 · cm^−1	–	–	–	–	–	–	–
CC(=O)SCC(=O)NC(CO)C(=O)NC(CO)C(=O)NC(CO)C(=O)NCCCCCC(=O)NCCCCN1C(=CC=CC=CC2=[N+](CCCCCC(=O)NCCCCC(NC(=O)NC(CCC(=O)O)C(=O)O)C(=O)O)c3ccc(S(=O)(=O)[O-])cc3C2(C)C)C(C)(C)c2ccccc21 (stereo not shown) [EuK(SO3)-Cy5-MAS3]	97 ± 2 % remaining	89 ± 6 % remaining	19 nM and 19.2 nM	–	significantly higher than the PPB of EuK-Cy5-MAS3	0.15	clear nuclear imaging of the tumour	-2.86 ± 0.05	16 nm	–	664 nm	648 nm	–	2.90±2.06	–	–	more than 9 fold	1713	PSMA-related staining of LNCaP cells	–
O=C(O)CC[C@H](NC(=O)N[C@@H](CCCCNC(=O)CCCCCCC(=O)NCCCC[C@@H](NC(=O)[C@@H](Cc1ccc2ccccc2c1)NC(=O)[C@@H](Cc1ccc(O)cc1)NC(=O)[C@@H](CO)NC(=O)[C@@H](CO)NC(=O)[C@@H](CO)NC(=O)CS)C(=O)O)C(=O)O)C(=O)O [PSMA I&S, reference compound] (Mercaptoacetyl-[dS][dS][dS][dY][d2Nal][dK](X1)-OH)	–	–	–	–	–	–	–	–	–	–	–	–	–	–	–	–	–	–	–	186.0±23.0 ID/g
